In patent US20100144712A1 (priority 2007, published 2010) one finds MIC80 data, which are given here for five compounds.

Structures are written as SMILES. ≈ marks a conversion by molar mass, not a printed value.

Type in all cases: cell-based
Test [1] has as its system Candida albican ATCC MYA-574. As to the kind of experiment: In vitro antifungal activity (MIC80), Candida albican ATCC MYA-574. The note with it: Candida; Table 2, MYA 574; read-out: Minimal inhibitory concentration (MIC80). The gist of the method: (§1)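 Broth dilution in RPMI 1640 with 2% (v/v) final DMSO, test range 0.25 to 256 […]. Yeast inoculum 1.0×10^3–5.0×10^3 CFU/ml, growth read with alamarBlue, run twice. MIC80 is the lowest concentration giving 80% growth reduction against untreated control.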

Test [2] concerns Candida albican ATCC 96901. Description: In vitro antifungal activity (MIC80), Candida albican ATCC 96901. The note with it: Candida, ATCC96901; Table 2, ATCC 96901; read-out: Minimal inhibitory concentration (MIC80). Summed up:
as §1

The test system of test [3] is Candida albican ATCC MYA-1003. Description: In vitro antifungal activity (MIC80), Candida albican ATCC MYA-1003. The note with it: Candida; Table 2, MYA 1003; read-out: Minimal inhibitory concentration (MIC80). The gist of the method: as §1
For test [4], the system named is Candida albican ATCC 64550. Description: In vitro antifungal activity (MIC80), Candida albican ATCC 64550. The note with it: Candida, ATCC64550; Table 2, 64550; read-out: Minimal inhibitory concentration (MIC80). Summed up: as §1
Test [5] deals with Candida albican ATCC 204276. As to the kind of experiment: In vitro antifungal activity (MIC80), Candida albican ATCC 204276. The note with it: ATCC204276, Table 2, 204276, read-out: Minimal inhibitory concentration (MIC80). As for the experimental part: In vitro antifungal activities of the inventive antifungal compounds were evaluated using test strains including Candida albican (ATCC 90873, 204276, 62342, 64124, 64550, 96901, MYA-573, MYA-574, MYA-575, MYA-576, MYA-1003) and Aspergillus fumigatus (ATCC 16424). Test samples and positive control samples were prepared by dissolving the inventive compounds and comparative compounds, i.e., amphotericin B, fluconazole and itraconazole, in DMSO, respectively, and each successively diluted with medium to obtain test and positive control solutions having test compound concentrations of 0.125 μg/ml to a maximum concentration not generating turbidity. Minimal inhibitory concentration (MIC80) of each compound was determined as the lowest concentration of the test compounds required to reduce growth by 80% relative to a control strain not treated.
1) Test strain: Candida albican ATCC 90873, 204276, 62342, 64124, 64550, 96901, MYA-573, MYA-574, MYA-575, MYA-576, MYA-1003, and Aspergillus fumigatus ATCC 16424 were commercially obtained from The American Type Culture Collection (ATCC) and subcultured in CHEMON Co. Ltd. (amphotericin B was commercially purchased from Sigma, and fluconazole and itraconazole were prepared according to methods described in British Patent No. 2,099,818; and U.S. Pat. No. 4,267,179, respectively).
2) Medium and culture condition: Candida albican was cultured in Sabourad Dextrose Agar, YM Agar or Potato Dextrose Agar according to ATCC information at a temperature of 37° C., 35° C., 30° C. or 25° C. Aspergillus fumigatus was cultured in Malt Extract Agar or Potato Dextrose Agar at a temperature ranging from 24 to 27° C.
3) Preparation of test samples: the inventive compounds and comparative compounds were each diluted with DMSO to obtain 1 to 2 ml of a test sample in a concentration of 100-folds of the determining maximum concentration (256 μg/ml).
The test samples were each successively diluted with RPMI 1640 to obtain test solutions having concentrations of […] in a 12×75 mm sterilized disposable culture tube. The final concentration of DMSO was adjusted to […] (v/v).
5) Preparation of strain solution and inoculation
Candida albican strains were each subcultured in Sabourad Dextrose Agar, YM Agar or Potato Dextrose Agar medium at 35° C. for 2˜3 days. In the case of yeasts, a single colony was taken from prominent colonies and suspended in 0.85% sterile physiological saline solution and the turbidity of the suspension was adjusted to 80˜82% at 530 nm, and then diluted 50-fold with RPMI 1640 medium to 1.0×10^3˜5.0×10^3 CFU/ml. The turbidity of fungi was adjusted to 80˜82% and the suspension was diluted 50-fold to […]. Aspergillus fumigatus strains were subcultured in Malt Extract Agar for 7˜10 days, and a single colony was taken from prominent colonies and suspended in 0.85% sterile physiological saline solution and the suspension was adjusted to 0.108 at 530 nm, and then diluted 1000-fold with RPMI 1640 medium to 0.4×10^2˜5×10^4 CFU/ml. The turbidity of fungi was adjusted to 80˜82% and the suspension was diluted 50-fold to 0.4102˜0.5104 CFU/ml.
The strain solutions thus obtained were each seeded into a sterilized 96-well microplate, 0.1 ml of each test solution were added thereto, and […] of alamarblue was treated to each well (Biosource, #DAL1100). This procedure was repeated 2 times.
Minimal inhibitory concentration (MIC80) of each compound was determined as the lowest concentration of the test compounds required to reduce growth by 80% relative to a control strain not treated.

Test [6] has as its system Candida albican ATCC MYA-576. Description: In vitro antifungal activity (MIC80), Candida albican ATCC MYA-576. The note with it: Candida; Table 2, MYA 576; read-out: Minimal inhibitory concentration (MIC80). The gist of the method:
as §1

For test [7], the system named is Candida albican ATCC 62342. Description: In vitro antifungal activity (MIC80), Candida albican ATCC 62342. The note with it: Candida, ATCC62342; Table 2, 62342; read-out: Minimal inhibitory concentration (MIC80). Summed up:
as §1

The subject of test [8] is Candida albican ATCC 64124. Description: In vitro antifungal activity (MIC80), Candida albican ATCC 64124. The note with it: Candida, ATCC64124; Table 2, 64124; read-out: Minimal inhibitory concentration (MIC80). The gist of the method: as §1
Test [9] concerns Candida albican ATCC MYA-575. As to the kind of experiment: In vitro antifungal activity (MIC80), Candida albican ATCC MYA-575. The note with it: Candida; Table 2, MYA 575; read-out: Minimal inhibitory concentration (MIC80). Summed up: as §1
In test [10] the test system is Aspergillus fumigatus (ATCC 16424). As to the kind of experiment: In vitro antifungal activity (MIC80), Aspergillus fumigatus ATCC 16424. The note with it: Aspergillus fumigatus, ATCC16424, Table 2, ATCC 16424; read-out: Minimal inhibitory concentration (MIC80). The gist of the method:
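Broth dilution in RPMI 1640 with 2% (v/v) final DMSO; A. fumigatus inoculum from Malt Extract Agar subculture diluted 1000-fold to 0.4×10^2˜5×10^4 CFU/ml, alamarblue added, repeated 2 times. MIC80 is lowest concentration reducing growth 80% versus untreated control.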

Test [11] has as its system Candida albican ATCC MYA-573. Description: In vitro antifungal activity (MIC80), Candida albican ATCC MYA-573. The note with it: Candida; Table 2, MYA 573; read-out: Minimal inhibitory concentration (MIC80). The gist of the method:
as §1

Test [12] concerns Candida albican ATCC 90873. Description: In vitro antifungal activity (MIC80), Candida albican ATCC 90873. The note with it: Candida, ATCC90873; Table 2, ATCC 90873; read-out: Minimal inhibitory concentration (MIC80). The gist of the method:
as §1

On to `C[C@@H](N1CCN(c2nc3ccccc3s2)CC1)[C@](O)(Cn1cncn1)c1ccc(F)cc1F` [Example 2, (2R,3R)-3-(4-(benzothiazol-2-yl)piperazin-1-yl)-2-(2,4-difluorophenyl)-1-(1H-1,2,4-triazol-1-yl)butan-2-ol], for which the MIC80 in test [1] amounted to 8 µg/mL (≈ 17 µM); in [2], 2 µg/mL (≈ 4.25 µM); in test [3] it was 128 µg/mL (≈ 272 µM); in test [4], 1 µg/mL (≈ 2.13 µM); in test [5], 0.125 µg/mL (≈ 0.266 µM); in test [6], 0.125 µg/mL (≈ 0.266 µM). Besides, the MIC80 in test [7] stood at 0.5 µg/mL (≈ 1.06 µM); in test [8], 4 µg/mL (≈ 8.5 µM); in test [9] it was 8 µg/mL (≈ 17 µM); in test [10], 0.5 µg/mL (≈ 1.06 µM); in [11], 0.25 µg/mL (≈ 0.531 µM); in test [12], 0.125 µg/mL (≈ 0.266 µM).

As to `Cc1ccc(C(=O)c2cnc3sc(C(=O)N4CCN([C@H](C)[C@](O)(Cn5cncn5)c5ccc(F)cc5F)CC4)cn23)cc1` [Example 56, (4-((2R,3R)-3-(2,4-difluorophenyl)-3-hydroxy-4-(1H-1,2,4-triazol-1-yl)butan-2-yl)piperazin-1-yl)(5-(4-methylbenzoyl)-imidazo[2,1-b]-thiazol-2-yl)methanone], the MIC80 in [1] was 4 µg/mL (≈ 6.6 µM); in test [2], 8 µg/mL (≈ 13.2 µM); in test [3] it was above 128 µg/mL; in test [4], 2 µg/mL (≈ 3.3 µM); in test [5], 0.25 µg/mL (≈ 0.413 µM); in [6], 0.125 µg/mL (≈ 0.206 µM). Further, the MIC80 in [7] stood at 0.5 µg/mL (≈ 0.826 µM); in test [8], 8 µg/mL (≈ 13.2 µM); in test [9] it was 4 µg/mL (≈ 6.6 µM); in [10], 1 µg/mL (≈ 1.65 µM); in test [11], 1 µg/mL (≈ 1.65 µM); in test [12], 0.25 µg/mL (≈ 0.413 µM).

On to `C[C@@H](N1CCN(c2ccccn2)CC1)[C@](O)(Cn1cncn1)c1ccc(F)cc1F` [Example 16, (2R,3R)-2-(2,4-difluorophenyl)-3-(4-(pyridin-2-yl)piperazin-1-yl)-1-(1H-1,2,4-triazol-1-yl)butan-2-ol], for which the MIC80 in test [1] is 32 µg/mL (≈ 77.2 µM); in [2], 16 µg/mL (≈ 38.6 µM); in [3], 64 µg/mL (≈ 154 µM); in [4], 1 µg/mL (≈ 2.41 µM); in test [5], 0.125 µg/mL (≈ 0.302 µM); in test [6] it was 0.125 µg/mL (≈ 0.302 µM). Moreover, the MIC80 in test [7] was 1 µg/mL (≈ 2.41 µM); in test [8], 8 µg/mL (≈ 19.3 µM); in test [9], 32 µg/mL (≈ 77.2 µM); in test [10], 16 µg/mL (≈ 38.6 µM); in test [11], 0.5 µg/mL (≈ 1.21 µM); in test [12], 0.125 µg/mL (≈ 0.302 µM).

In the case of `C[C@@H](N1CCN(c2ccc(C#N)nc2)CC1)[C@](O)(Cn1cncn1)c1ccc(F)cc1F` [Example 17, 5-(4-((2R,3R)-3-(2,4-difluorophenyl)-3-hydroxy-4-(1H-1,2,4-triazol-1-yl)butan-2-yl)piperazin-1-yl)picolinonitrile], the MIC80 is 64 µg/mL (≈ 146 µM) in test [1]; 8 µg/mL (≈ 18.2 µM) in test [2]; 32 µg/mL (≈ 72.8 µM) in test [3]; 1 µg/mL (≈ 2.28 µM) in test [4]; 0.125 µg/mL (≈ 0.284 µM) in [5]; 0.125 µg/mL (≈ 0.284 µM) in [6]. In addition, the MIC80 in test [7] worked out at 2 µg/mL (≈ 4.55 µM); in test [8], 16 µg/mL (≈ 36.4 µM); in test [9], 64 µg/mL (≈ 146 µM); in [10] it was 8 µg/mL (≈ 18.2 µM); in [11], 0.25 µg/mL (≈ 0.569 µM); in test [12], 0.125 µg/mL (≈ 0.284 µM).

`C[C@@H](N1CCN(c2ccc3ccccc3n2)CC1)[C@](O)(Cn1cncn1)c1ccc(F)cc1F` [Example 19, (2R,3R)-2-(2,4-difluorophenyl)-3-(4-(quinolin-2-yl)piperazin-1-yl)-1-(1H-1,2,4-triazol-1-yl)butan-2-ol]: the MIC80 in [1] was above 128 µg/mL; in test [2], 0.5 µg/mL (≈ 1.08 µM); in test [3], above 128 µg/mL; in test [4], 0.5 µg/mL (≈ 1.08 µM); in test [5] it was 0.125 µg/mL (≈ 0.269 µM); in test [6] it was 0.125 µg/mL (≈ 0.269 µM). The MIC80 in test [7] was 0.25 µg/mL (≈ 0.538 µM); in [8] it was 4 µg/mL (≈ 8.61 µM); in test [9], above 128 µg/mL; in [10], 0.125 µg/mL (≈ 0.269 µM); in [11], 0.25 µg/mL (≈ 0.538 µM); in [12], 0.125 µg/mL (≈ 0.269 µM).
